Results as given in patent US20090155187A1, “DRUG FOR INHIBITING VASCULAR INTIMAL HYPERPLASIA” (Nissan Chemical Industries Ltd., priority 2004, published 2009).

Test system: rat femoral arteries (intimal hyperplasia)
Assay: Intimal hyperplasia in rat femoral arteries formed by photosensitization (rose bengal and green light)
Assay type: in vivo, Wistar rat
Conditions: left femoral artery, vs solvent group
Experimental: Under intraperitoneal anesthesia with pentobarbital (50 mg/mL/kg), a catheter was placed in the left cervical vein of a Wistar rat. The left femoral artery was detached, and the probe of an ultrasonic pulse Doppler blood flowmeter was placed on the artery. The artery proximal to the site of placement of the probe was irradiated with green light (540 nm, 800,000 1×) at a distance of 5 mm from the artery. A steady blood flow was confirmed after 10 minutes of start of the irradiation, and 15 mg/mL/kg of rose bengal was injected into the left cervical vein to damage the vascular endothelium. Then, the incision was sutured. Rats were divided in order as a solvent group (9 rats), a group (10 rats) to which 10 mg/kg of Compound A was administered, and a group (10 rats) to which 300 mg/kg of Cilostazol was administered. The drugs were suspended in 0.5% methylcellulose solution, adjusted so as to be administered at a dose of 5 mL/kg, and orally administered on the day of operation after confirmation of postoperative arousal, and then orally administered once a day in the morning for the subsequent three weeks. Three weeks after the operation, the left femoral artery was exposed under anesthesia. […] The medial areas and the intimal area in transverse sections of the femoral arteries were measured as indices of intimal hyperplasia with a computer image analyzer, and the ratio of the […] (the I/M ratio) was calculated. The results are expressed as average±standard deviation. The intimal areas and the I/M ratios were analyzed for distribution uniformity in each group by Bartlett's test. If the distribution was uniform, one-way analysis of variance was done, and the averages for the solvent group and the respective drug-treated groups were analyzed by Dunnett's test to determine if there was significant difference between them. When the distribution was not uniform, the Kruskal-Wallis rank test was done, and if there was significant difference between the solvent group and a drug-treated group, the average ranks for the two groups were analyzed by Dunnett's test. […]

[1] = 10 mg/kg orally once a day for three weeks, Dunnett's test p<0.05

Compound: O=C1CCc2cc(OCCCCc3nnnn3C3CCCCC3)ccc2N1 [Cilostazol, reference compound]
- intimal hyperplasia inhibitory action (intimal area and I/M ratio) (300 mg/kg orally once a day for three weeks): showed no action

Compound: Cl.O=c1[nH]nc(OCCCc2ccc(Cl)cc2)c(NCc2cccnc2)c1Br [Compound A, 4-bromo-6-[3-(4-chlorophenyl)propoxy]-5-(3-pyridylmethylamino)-3(2H)-pyridazinone hydrochloride]
- I/M ratio [1]: significantly reduced
- area of the tunica intima (intimal area) [1]: significantly reduced
